Results taken from BindingDB's records for patent US10087181 (Curegenix, 2018).

Target: Protein Wnt-3a (Human, UniProt P56704)
Test: WNT pathway reporter gene assay
Procedure: NIH3T3 mouse fibroblast cells (American Type Culture Collection, Manassas, Va.) were transfected with a plasmid containing a luciferase gene driven by 5 copies of TCF elements. Stale cells selected with 1 μg/mL of Zeocin (Gibco/Invitrogen, Carlsbad, Calif.) are cultured in Dulbecco's modified Eagle's medium (Invitrogen, Carlsbad, Calif.) supplemented with 10% FBS (Invitrogen), 50 unit/mL penicillin and 50 μg/mL of streptomycin (Invitrogen) at 37° C. with 5% CO2 in air atmosphere. […] After 16 hours, the firefly luciferase activities are measured with the Steady-Glo Luciferase Assay System (Promega). The cells were treated with different concentrations of compounds of this invention during the co-culture. […] To normalize for cell quantity and viability, CellTiter Glo assay is next performed in a duplicate plate.

Sequence of Protein Wnt-3a (P56704 whole entry): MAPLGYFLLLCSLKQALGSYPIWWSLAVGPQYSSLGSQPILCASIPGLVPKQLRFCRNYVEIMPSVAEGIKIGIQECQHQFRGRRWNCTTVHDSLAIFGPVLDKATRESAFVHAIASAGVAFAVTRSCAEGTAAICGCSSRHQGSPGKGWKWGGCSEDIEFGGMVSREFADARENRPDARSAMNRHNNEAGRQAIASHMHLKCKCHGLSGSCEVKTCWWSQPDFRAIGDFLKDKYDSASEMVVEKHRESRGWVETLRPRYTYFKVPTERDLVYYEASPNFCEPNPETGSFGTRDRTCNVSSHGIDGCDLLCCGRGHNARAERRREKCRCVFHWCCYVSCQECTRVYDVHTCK

Compound	IC50 [nM]
Cc1cc(-c2ccc(CNc3nccc4cc(-c5ccnc(C)c5)ncc34)cc2)ccn1 [US10087181, Compound 1]	< 3
Cc1cc(-c2cc3ccnc(NCc4ccc(-c5ccnc(C)c5)c(C)c4)c3cn2)ccn1 [US10087181, Compound 2]	< 3
Cc1cc(-c2cc3ccnc(NCc4ccc(-c5ccnc(F)c5)c(F)c4)c3cn2)ccn1 [US10087181, Compound 28]	< 3
Cc1cc(-c2ccc(CNc3nccc4cc(-c5cnccn5)ncc34)cc2)ccn1 [US10087181, Compound 35]	< 3
Cc1cc(-c2ncc(CNc3nccc4cc(-c5cnccn5)ccc34)cc2C)ccn1 [US10087181, Compound 70]	< 3
